Legend:
[1] = biological target: T1, M1 muscarinic acetylcholine receptor (Rattus norvegicus, UniProt P08482); test: In vitro two-photon FRET response of M1-TN-XXL neurofluocytes to bath-applied neurotransmitters; type: cell-based; details: ACh applied at 10 nM to 10 μM via bath perfusion
T1 construct: expressed in transfected cells
T1 sequence (P08482 1-460): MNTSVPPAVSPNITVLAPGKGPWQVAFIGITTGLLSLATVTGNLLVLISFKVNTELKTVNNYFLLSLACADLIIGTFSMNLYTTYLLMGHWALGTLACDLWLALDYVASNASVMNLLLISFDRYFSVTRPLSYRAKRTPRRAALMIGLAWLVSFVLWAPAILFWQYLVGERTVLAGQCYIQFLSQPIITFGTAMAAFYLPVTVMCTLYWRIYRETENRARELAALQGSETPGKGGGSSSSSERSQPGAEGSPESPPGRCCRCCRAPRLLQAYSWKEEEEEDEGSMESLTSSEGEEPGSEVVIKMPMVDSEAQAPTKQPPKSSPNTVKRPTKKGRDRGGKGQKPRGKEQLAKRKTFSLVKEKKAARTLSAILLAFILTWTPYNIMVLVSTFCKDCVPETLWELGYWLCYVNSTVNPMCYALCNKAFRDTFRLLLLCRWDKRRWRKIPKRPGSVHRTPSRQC
Excerpt: The state of each cell is imaged with in vivo two-photon laser scanning microscopy (TPLSM). In another implementation, HEK293 cells were transfected with the Ca^2+-coupled M1 muscarinic receptor and the genetically encoded FRET-based Ca^2+ biosensor TN-XXL. In the presence of acetylcholine (ACh), a M1-mediated Ca^2+ increase is transduced by TN-XXL into a FRET-based optical signal.
ACh-neurofluocytes expressing a muscarinic receptor and fluorescent protein. […] These cells are referred to here as M1-TN-XXL neuro-fluocytes. HEK-293 cells were transduced with lentiviruses modified to carry the M1 muscarinic acetylcholine receptor or the TN-XXL FRET intracellular calcium indicator as transgenes. Clonal cells were selected subsequently based on the highest response to acetylcholine in vitro.
M1-TN-XXL neurofluocytes. ACh-neurofluocytes were tested in vitro for their sensitivity to acetylcholine. […] FIG. 2a provides a diagram of the detection mechanism.

muscarinic receptors = test: Response of implanted neurofluocytes to NBM stimulation after intracerebral injection of antagonist
Procedure: Urethane-anesthetized rats were injected with HEK293 cells loaded with Calcium Green in the cerebral cortex and a bipolar stimulating electrode was implanted in NBM together with ECoG-recording electrodes to detect desynchronization in cerebral cortex upon NBM stimulation.
A similar set of experiments was conducted with stably transfected M1-TN-XXL neurofluocytes.

[2] = biological target: T2, ionotropic receptor 5-HT3A (Rattus norvegicus, UniProt P35563); test: In vitro response of HEK cells transiently cotransfected with 5-HT3A and TN-XXL to bath-applied serotonin; type: cell-based; details: 3-10 μm serotonin applied in the bath
T2 construct: expressed in transfected cells; host or cells: HEK cells, transient co-transfection with TN-XXL
T2 sequence (P35563 24-483): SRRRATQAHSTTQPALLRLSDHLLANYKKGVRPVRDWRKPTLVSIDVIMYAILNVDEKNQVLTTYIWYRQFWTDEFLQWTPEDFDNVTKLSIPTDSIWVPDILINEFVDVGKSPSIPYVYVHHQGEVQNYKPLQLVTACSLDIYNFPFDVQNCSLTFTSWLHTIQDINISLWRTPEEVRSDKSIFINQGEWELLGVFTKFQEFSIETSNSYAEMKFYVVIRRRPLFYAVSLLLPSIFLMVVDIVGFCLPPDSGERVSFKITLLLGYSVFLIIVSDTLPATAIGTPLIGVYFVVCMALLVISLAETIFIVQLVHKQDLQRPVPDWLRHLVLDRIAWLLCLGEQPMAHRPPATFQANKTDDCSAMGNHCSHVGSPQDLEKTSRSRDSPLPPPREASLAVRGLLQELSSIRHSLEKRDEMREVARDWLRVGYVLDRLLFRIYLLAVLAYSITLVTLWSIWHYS

| Structure (SMILES) | FRET response / sensitivity of ACh-neurofluocytes to neurotransmitter [1] | response of 5-HT3A/TN-XXL cells [2] | effect on responses of neurofluocytes to NBM stimulation (muscarinic receptors) |
| --- | --- | --- | --- |
| NCCCC(=O)O [GABA] | insensitive | – | – |
| CN1[C@@H]2CC[C@H]1C[C@@H](OC(=O)C(CO)c1ccccc1)C2 (stereo partly shown) [atropine] | – | – | abolished |
| N[C@@H](CCC(=O)O)C(=O)O [glutamate] | insensitive | – | – |

Further lines, with some results ahead:

| FRET response / sensitivity of ACh-neurofluocytes to neurotransmitter [1] | response of 5-HT3A/TN-XXL cells [2] | Structure (SMILES) | effect on responses of neurofluocytes to NBM stimulation (muscarinic receptors) |
| --- | --- | --- | --- |
| insensitive | – | NCCc1ccc(O)c(O)c1 [dopamine] | – |
| insensitive | – | NC[C@H](O)c1ccc(O)c(O)c1 [norepinephrine] | – |
| insensitive | responded robustly | NCCc1c[nH]c2ccc(O)cc12 [serotonin] | – |
